Measurements from doi:10.1101/2023.11.24.568596v1 (biorxiv, 2023).
One block for each compound: values may come before it.

What was measured:
Conditions in all cases: binder
[1] = target: Erk2 (Homo sapiens, UniProt P28482)
[2] = target: CHK2 (Homo sapiens, UniProt O96017)
[3] = target: T1, PLK4 (Homo sapiens, UniProt O00444)
T1 sequence (O00444 1-970): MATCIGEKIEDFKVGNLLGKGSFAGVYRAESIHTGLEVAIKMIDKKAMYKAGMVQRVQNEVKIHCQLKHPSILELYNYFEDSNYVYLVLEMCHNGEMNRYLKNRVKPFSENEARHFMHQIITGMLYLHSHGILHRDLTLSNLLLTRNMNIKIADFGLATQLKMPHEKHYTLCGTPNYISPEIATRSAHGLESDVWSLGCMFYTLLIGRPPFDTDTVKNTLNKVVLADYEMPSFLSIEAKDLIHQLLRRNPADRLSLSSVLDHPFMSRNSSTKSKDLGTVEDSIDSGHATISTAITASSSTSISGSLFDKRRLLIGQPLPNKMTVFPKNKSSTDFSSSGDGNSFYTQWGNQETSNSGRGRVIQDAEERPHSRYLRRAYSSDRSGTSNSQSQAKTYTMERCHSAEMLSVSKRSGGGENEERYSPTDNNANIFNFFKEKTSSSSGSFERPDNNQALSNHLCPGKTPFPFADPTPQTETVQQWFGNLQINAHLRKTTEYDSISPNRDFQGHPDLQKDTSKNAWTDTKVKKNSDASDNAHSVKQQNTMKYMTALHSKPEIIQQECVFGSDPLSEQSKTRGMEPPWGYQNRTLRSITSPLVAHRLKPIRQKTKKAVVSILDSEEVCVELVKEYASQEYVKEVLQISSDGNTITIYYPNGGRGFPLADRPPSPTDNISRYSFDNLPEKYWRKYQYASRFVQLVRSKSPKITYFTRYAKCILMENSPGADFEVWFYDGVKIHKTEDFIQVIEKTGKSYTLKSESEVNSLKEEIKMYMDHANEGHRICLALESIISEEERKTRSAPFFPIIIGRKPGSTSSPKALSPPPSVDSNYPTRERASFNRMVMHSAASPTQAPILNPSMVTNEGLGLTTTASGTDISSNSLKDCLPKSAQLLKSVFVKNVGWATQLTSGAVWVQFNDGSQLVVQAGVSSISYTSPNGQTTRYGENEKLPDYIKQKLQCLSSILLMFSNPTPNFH

[4] = target: PAK4 (Homo sapiens, UniProt O96013)
PAK4, sequence (O96013 whole entry): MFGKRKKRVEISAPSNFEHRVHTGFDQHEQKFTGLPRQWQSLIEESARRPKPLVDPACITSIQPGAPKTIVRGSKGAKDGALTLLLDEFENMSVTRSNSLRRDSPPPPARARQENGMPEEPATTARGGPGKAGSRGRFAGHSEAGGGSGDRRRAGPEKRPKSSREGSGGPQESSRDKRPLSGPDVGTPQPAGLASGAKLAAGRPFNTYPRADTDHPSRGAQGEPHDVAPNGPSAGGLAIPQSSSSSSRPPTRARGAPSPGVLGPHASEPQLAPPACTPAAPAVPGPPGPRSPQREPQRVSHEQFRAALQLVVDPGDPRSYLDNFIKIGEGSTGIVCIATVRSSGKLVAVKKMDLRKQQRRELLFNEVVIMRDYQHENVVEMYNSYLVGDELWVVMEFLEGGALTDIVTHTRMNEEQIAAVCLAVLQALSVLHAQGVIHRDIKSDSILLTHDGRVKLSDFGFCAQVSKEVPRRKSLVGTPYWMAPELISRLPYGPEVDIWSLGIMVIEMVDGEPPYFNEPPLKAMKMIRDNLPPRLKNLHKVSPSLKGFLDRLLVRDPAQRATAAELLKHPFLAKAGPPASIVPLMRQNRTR

[5] = target: T2, NEK1 (Homo sapiens, UniProt Q96PY6)
T2 sequence (Q96PY6 1-1258): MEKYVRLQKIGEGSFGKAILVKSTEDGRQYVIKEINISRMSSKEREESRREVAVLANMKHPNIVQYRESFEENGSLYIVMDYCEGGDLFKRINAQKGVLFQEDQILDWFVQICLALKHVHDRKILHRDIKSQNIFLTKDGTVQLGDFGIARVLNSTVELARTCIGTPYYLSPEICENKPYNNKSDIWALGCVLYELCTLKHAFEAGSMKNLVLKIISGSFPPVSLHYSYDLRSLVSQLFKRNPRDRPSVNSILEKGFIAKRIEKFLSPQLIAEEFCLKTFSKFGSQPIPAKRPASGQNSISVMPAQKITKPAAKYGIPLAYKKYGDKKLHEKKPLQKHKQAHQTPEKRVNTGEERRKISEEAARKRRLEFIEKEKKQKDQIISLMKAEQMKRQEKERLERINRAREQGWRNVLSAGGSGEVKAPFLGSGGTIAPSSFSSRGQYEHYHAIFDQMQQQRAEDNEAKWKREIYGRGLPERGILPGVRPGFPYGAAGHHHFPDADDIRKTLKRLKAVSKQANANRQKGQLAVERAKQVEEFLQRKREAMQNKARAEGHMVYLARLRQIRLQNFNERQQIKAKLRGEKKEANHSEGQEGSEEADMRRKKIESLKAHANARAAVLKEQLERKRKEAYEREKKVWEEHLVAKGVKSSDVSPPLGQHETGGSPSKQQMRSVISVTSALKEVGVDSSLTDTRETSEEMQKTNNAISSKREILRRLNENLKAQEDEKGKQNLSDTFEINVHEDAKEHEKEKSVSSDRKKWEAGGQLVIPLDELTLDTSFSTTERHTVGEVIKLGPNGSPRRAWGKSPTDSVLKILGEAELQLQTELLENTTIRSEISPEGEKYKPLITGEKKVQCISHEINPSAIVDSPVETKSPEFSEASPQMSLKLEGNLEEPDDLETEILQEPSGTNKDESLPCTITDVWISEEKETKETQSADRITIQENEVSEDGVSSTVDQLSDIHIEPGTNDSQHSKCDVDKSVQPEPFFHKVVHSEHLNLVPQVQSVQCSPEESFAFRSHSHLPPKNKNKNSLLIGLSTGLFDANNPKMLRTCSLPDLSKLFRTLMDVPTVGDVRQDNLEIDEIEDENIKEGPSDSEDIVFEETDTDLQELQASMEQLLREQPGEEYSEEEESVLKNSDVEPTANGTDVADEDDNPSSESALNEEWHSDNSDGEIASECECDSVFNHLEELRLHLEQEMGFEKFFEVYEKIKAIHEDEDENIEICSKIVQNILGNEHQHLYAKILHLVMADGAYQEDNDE

[6] = target: DYRK1A (Homo sapiens, UniProt Q13627)

CHK2, sequence (O96017 whole entry): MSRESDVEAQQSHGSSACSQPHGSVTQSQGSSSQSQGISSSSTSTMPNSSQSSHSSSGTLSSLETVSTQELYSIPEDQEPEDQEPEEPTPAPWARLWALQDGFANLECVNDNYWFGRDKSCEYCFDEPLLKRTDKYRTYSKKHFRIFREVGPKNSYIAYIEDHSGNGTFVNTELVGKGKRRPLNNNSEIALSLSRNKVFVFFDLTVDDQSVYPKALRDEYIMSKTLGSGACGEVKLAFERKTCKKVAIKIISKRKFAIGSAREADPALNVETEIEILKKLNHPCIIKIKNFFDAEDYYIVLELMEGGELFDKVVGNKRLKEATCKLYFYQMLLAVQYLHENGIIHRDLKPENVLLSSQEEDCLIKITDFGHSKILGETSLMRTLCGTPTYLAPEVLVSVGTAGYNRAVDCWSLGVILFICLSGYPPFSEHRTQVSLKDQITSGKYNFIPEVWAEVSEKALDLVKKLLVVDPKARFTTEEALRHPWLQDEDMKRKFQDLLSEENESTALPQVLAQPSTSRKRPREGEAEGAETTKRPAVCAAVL
Erk2, sequence (P28482 whole entry): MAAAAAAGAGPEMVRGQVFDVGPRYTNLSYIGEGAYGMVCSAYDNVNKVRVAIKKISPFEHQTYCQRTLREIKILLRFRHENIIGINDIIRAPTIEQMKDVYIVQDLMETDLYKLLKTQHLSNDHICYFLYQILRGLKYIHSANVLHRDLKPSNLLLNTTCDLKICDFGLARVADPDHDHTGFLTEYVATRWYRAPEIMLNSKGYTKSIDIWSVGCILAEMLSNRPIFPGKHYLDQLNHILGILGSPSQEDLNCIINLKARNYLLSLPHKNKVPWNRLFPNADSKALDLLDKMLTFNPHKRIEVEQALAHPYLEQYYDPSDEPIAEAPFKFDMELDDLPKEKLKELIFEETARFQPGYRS

SMILES: CNc1ncc2cc(-c3ccc(-c4cccc(C)n4)cc3Cl)c(=O)n(CCCCN)c2n1 [compound 20, MRLW5]
ΔTm MRLW5 (20) [1]: 1.3 °C
ΔTm MRLW5 (20) [2]: 2.8 °C
ΔTm MRLW5 (20) [3]: 5.2 °C
ΔTm MRLW5 (20) [4]: 4.8 °C
ΔTm MRLW5 (20) [5]: -1.9 °C
ΔTm MRLW5 (20) [6]: -1.0 °C

SMILES: CNc1ncc2cc(-c3ccc(-c4cccc(C)n4)cc3Cl)c(=O)n(CCC3CCNCC3)c2n1 [compound 22, 6-(2-Chloro-4-(6-methylpyridin-2-yl)phenyl)-2-(methylamino)-8-(2-(piperidin-4-yl)ethyl)pyrido[2,3-d]pyrimidin-7(8H)-one]
ΔTm 22 [1]: 2.8 °C
ΔTm 22 [2]: 3.0 °C
ΔTm 22 [3]: 7.3 °C
ΔTm 22 [4]: 4.7 °C
ΔTm 22 [5]: -2.0 °C
ΔTm 22 [6]: 0.5 °C

SMILES: CNc1ncc2cc(-c3ccc(-c4cccc(C)n4)cc3Cl)c(=O)n(C[C@H]3CC[C@H](N)CC3)c2n1 [compound 23, 23]
ΔTm 23 [1]: 2.7 °C
ΔTm 23 [2]: 4.6 °C
ΔTm 23 [3]: 7.1 °C
ΔTm 23 [4]: 4.5 °C
ΔTm 23 [5]: -2.7 °C
ΔTm 23 [6]: -0.3 °C

The next lines start with the values.

ΔTm MR24 (24) [1]: -0.9 °C
ΔTm MR24 (24) [2]: 2.0 °C
ΔTm MR24 (24) [3]: 1.3 °C
ΔTm MR24 (24) [4]: 2.2 °C
ΔTm MR24 (24) [5]: 0.0 °C
ΔTm MR24 (24) [6]: 0.1 °C
SMILES: Cc1cccc(-c2ccc(-c3cc4cnc(NC(CO)CO)nc4n(CCCCN)c3=O)c(Cl)c2)n1 [compound 24, 8-(4-Aminobutyl)-6-(2-chloro-4-(6-methylpyridin-2-yl)phenyl)-2-((1,3-dihydroxypropan-2-yl)amino)pyrido[2,3-d]pyrimidin-7(8H)-one]

ΔTm 25 [1]: 3.1 °C
ΔTm 25 [2]: 8.5 °C
ΔTm 25 [3]: 6.7 °C
ΔTm 25 [4]: 5.5 °C
ΔTm 25 [5]: -1.2 °C
ΔTm 25 [6]: -0.1 °C
SMILES: Cc1cccc(-c2ccc(-c3cc4cnc(NCCCc5ccc(N)cc5)nc4n(CCCCN)c3=O)c(Cl)c2)n1 [compound 25, 8-(4-Aminobutyl)-2-((3-(4-aminophenyl)propyl)amino)-6-(2-chloro-4-(6-methylpyridin-2-yl)phenyl)pyrido[2,3-d]pyrimidin-7(8H)-one]

ΔTm MR26 (26) [1]: 0.2 °C
ΔTm MR26 (26) [2]: 3.3 °C
ΔTm MR26 (26) [3]: 5.1 °C
ΔTm MR26 (26) [4]: 2.4 °C
ΔTm MR26 (26) [5]: 0.1 °C
ΔTm MR26 (26) [6]: -0.3 °C
SMILES: Cc1cccc(-c2ccc(-c3cc4cnc(NCCCN5CCOCC5)nc4n(CCCCN)c3=O)c(Cl)c2)n1 [compound 26, MR26]
